Measurements: PubChem BioAssay (NCI)
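Cultured in 96-well plates, cells were exposed to test compound for 48 hours across five concentrations. TGI: total growth inhibition.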

What was measured:
Assay in all cases: inhibition of tumour cell growth, NCI panel, 48 h
MDA-N = tested on: MDA-N
SW-620 colon = tested on: SW-620 colon
DU-145 prostate = tested on: DU-145 prostate
HCC-2998 colon = tested on: HCC-2998 colon
TK-10 renal = tested on: TK-10 renal
SNB-75 CNS = tested on: SNB-75 CNS
786-0 renal = tested on: 786-0 renal
NCI/ADR-RES ovarian = tested on: NCI/ADR-RES ovarian
K-562 leukemia = tested on: K-562 leukemia
M14 melanoma = tested on: M14 melanoma
HCT-116 colon = tested on: HCT-116 colon
SN12C renal = tested on: SN12C renal
MOLT-4 leukemia = tested on: MOLT-4 leukemia
NCI-H460 lung = tested on: NCI-H460 lung
OVCAR-3 ovarian = tested on: OVCAR-3 ovarian
LOX IMVI melanoma = tested on: LOX IMVI melanoma
PC-3 prostate = tested on: PC-3 prostate
HT29 colon = tested on: HT29 colon
SF-539 CNS = tested on: SF-539 CNS
OVCAR-8 ovarian = tested on: OVCAR-8 ovarian
A498 renal = tested on: A498 renal
NCI-H522 lung = tested on: NCI-H522 lung
OVCAR-5 ovarian = tested on: OVCAR-5 ovarian
SNB-19 CNS = tested on: SNB-19 CNS
SK-MEL-5 melanoma = tested on: SK-MEL-5 melanoma
T-47D breast = tested on: T-47D breast
CCRF-CEM leukemia = tested on: CCRF-CEM leukemia
SK-MEL-28 melanoma = tested on: SK-MEL-28 melanoma
SF-295 CNS = tested on: SF-295 CNS
HCT-15 colon = tested on: HCT-15 colon
UO-31 renal = tested on: UO-31 renal
SK-MEL-2 melanoma = tested on: SK-MEL-2 melanoma
SR leukemia = tested on: SR leukemia
U251 CNS = tested on: U251 CNS
COLO 205 colon = tested on: COLO 205 colon
NCI-H226 lung = tested on: NCI-H226 lung
ACHN renal = tested on: ACHN renal
CAKI-1 renal = tested on: CAKI-1 renal
SF-268 CNS = tested on: SF-268 CNS
HL-60(TB) leukemia = tested on: HL-60(TB) leukemia
MDA-MB-435 = tested on: MDA-MB-435
MDA-MB-231 breast = tested on: MDA-MB-231 breast
OVCAR-4 ovarian = tested on: OVCAR-4 ovarian
EKVX NSCLC = tested on: EKVX NSCLC
HS 578T breast = tested on: HS 578T breast
A549 NSCLC = tested on: A549 NSCLC
HOP-62 NSCLC = tested on: HOP-62 NSCLC
SK-OV-3 ovarian = tested on: SK-OV-3 ovarian
RXF 393 renal = tested on: RXF 393 renal
NCI-H23 lung = tested on: NCI-H23 lung

## c1ccc2c(c1)Nc1ccccc1[P+]21c2ccccc2Nc2ccccc21
MDA-N
  TGI: 1110 nM
SW-620 colon
  TGI: 3420 nM
DU-145 prostate
  TGI: 3460 nM
HCC-2998 colon
  TGI: 2440 nM
TK-10 renal
  TGI: 5930 nM
SNB-75 CNS
  TGI: 332 nM
786-0 renal
  TGI: 2870 nM
NCI/ADR-RES ovarian
  TGI: > 100000 nM
K-562 leukemia
  TGI: 1750 nM
M14 melanoma
  TGI: 2230 nM
HCT-116 colon
  TGI: 1050 nM
SN12C renal
  TGI: 631 nM
MOLT-4 leukemia
  TGI: 1110 nM
NCI-H460 lung
  TGI: 2810 nM
OVCAR-3 ovarian
  TGI: 612 nM
LOX IMVI melanoma
  TGI: 2230 nM
PC-3 prostate
  TGI: 609 nM
HT29 colon
  TGI: 2900 nM
SF-539 CNS
  TGI: 817 nM
OVCAR-8 ovarian
  TGI: 5390 nM
A498 renal
  TGI: 2930 nM
NCI-H522 lung
  TGI: 728 nM
OVCAR-5 ovarian
  TGI: 2040 nM
SNB-19 CNS
  TGI: 1090 nM
SK-MEL-5 melanoma
  TGI: 310 nM
T-47D breast
  TGI: 1910 nM
CCRF-CEM leukemia
  TGI: 850 nM
SK-MEL-28 melanoma
  TGI: 1650 nM
SF-295 CNS
  TGI: 5160 nM
HCT-15 colon
  TGI: 24500 nM
UO-31 renal
  TGI: 23300 nM
SK-MEL-2 melanoma
  TGI: 482 nM
SR leukemia
  TGI: 1400 nM
U251 CNS
  TGI: 1400 nM
COLO 205 colon
  TGI: 202 nM
NCI-H226 lung
  TGI: 660 nM
ACHN renal
  TGI: 9290 nM
CAKI-1 renal
  TGI: 11200 nM
SF-268 CNS
  TGI: 6630 nM
HL-60(TB) leukemia
  TGI: 485 nM
MDA-MB-435
  TGI: 1270 nM
MDA-MB-231 breast
  TGI: 588 nM
OVCAR-4 ovarian
  TGI: > 32500 nM
EKVX NSCLC
  TGI: 2740 nM
HS 578T breast
  TGI: 1360 nM
A549 NSCLC
  TGI: 3290 nM
HOP-62 NSCLC
  TGI: 1580 nM
SK-OV-3 ovarian
  TGI: 869 nM
RXF 393 renal
  TGI: 891 nM
NCI-H23 lung
  TGI: 830 nM
